This is an account of results in patent EP2057185B1, “POLYMYXIN DERIVATIVES AND USES THEREOF” (Northern Antibiotics Oy, priority 2006, dated 2008).

Bridge positions count the residues as written; N and C are the ends. Square brackets hold non-standard residues; d marks the D form. Peptide text beside a SMILES is read from it. Dab = NCC[C@H](N)C(=O)O; Abu = CC[C@H](N)C(=O)O

One test relates to E. cloacae ATCC23355. The experiment in a line: MIC by E-strips on Mueller-Hinton agar with or without NAB7061 (4 µg/ml). The class given is cell-based, Enterobacter cloacae. The conditions noted are these: ratio of the MIC of the antibiotic in the absence of NAB 7061 to that in the presence of 4 µg/ml of NAB 7061; E. cloacae ATCC 23355. On the procedure:
(§1) MICs were determined by using E-strips (Biodisk Ltd., Solna, Sweden) according to the manufacturer's instructions.
(§2) The strains originated from ATCC (11 strains), CCUG (11 strains), and NCTC (The National Collection of Type Cultures, Colindale, U.K.; 2 strains). Eight strains (the F-strains) were purchased from Mobidiag Ltd., Helsinki, Finland.

A further test deals with K. pneumoniae ATCC13883. Described as above. The class given is cell-based, Klebsiella pneumoniae. The conditions noted are these: ratio of the MIC of the antibiotic in the absence of NAB 7061 to that in the presence of 4 µg/ml of NAB 7061; K. pneum. ATCC 13883. On the procedure: as §1, §2
A further test deals with E. coli ATCC25922. The test is described as above. The test is classed as cell-based, Escherichia coli. The following applies: ratio of the MIC of the antibiotic in the absence of NAB 7061 to that in the presence of 4 µg/ml of NAB 7061; E. coli ATCC 25922. On the procedure: as §1, §2
Test [1] deals with E. coli IH3080. The description is as above. The test is classed as cell-based, Escherichia coli. The following applies: ratio of the MIC of the antibiotic in the absence of NAB 7061 to that in the presence of 4 µg/ml of NAB 7061; E. coli IH 3080. On the procedure:
as §1, §2

Test [2] deals with E. coli IH3080. Nature of the test: Growth inhibition around wells on LB agar plates. The following applies: 18 h at 37°C; for Antibacterial activity at 4 µg: growth inhibition area around a well containing 4 µg of compound; for Antibacterial activity at 10 µg: growth inhibition area around a well containing 10 µg of compound. The test is classed as cell-based, Escherichia coli. On the procedure: Peptides synthesized in Example 1, all carrying at least two (2) but not more than three (3) positive charges, were studied for their ability to inhibit the growth of E. coli. This was tested employing LB agar (LB Agar Lennox, Difco, BD, Sparks, MD, U.S.A) plates. The indicator organism E. coli IH3080 (K1:O18) was an encapsulated strain originally isolated from a neonate suffering from meningitis (Vaara et al. 1984) and obtained from National Public Health Institute, Helsinki, Finland.
(§3) From an overnight-grown culture of IH3080 on LB agar, a suspension of approx. 10^8 cells/ml was prepared in 0.9% NaCl. Aliquots of this suspension were then pipetted on the agar plates and the plates were gently shaken to spread the suspension evenly on the entire surface of the plate. Thereafter, the unabsorbed part of the suspension was removed by using a Pasteur pipette. After the surface had dried, small wells (diameter, 2 mm) were drilled on the plates (five wells per plate) by using a sterile sharp-edged narrow metal tube, single-use pipette tip, and vacuum suction. […] Controls included 0.9% NaCl solution without the compound to be tested. The plates were then incubated for 18 h at 37°C whereafter the diameters of growth inhibition zones around each well were measured; the diameter of the well itself was […]. Finally, the diameters were converted to surface areas of growth inhibition (in square mm).

The test system of test [3] is E. coli IH3080. The experiment in a line: Growth inhibition around wells on LB plates containing rifampin (sensitization). The test is classed as cell-based, Escherichia coli. The following applies: well containing 4 µg of compound; for Antibacterial activity in the presence of rifampin concn (µg/ml) of 0: plates with no rifampin; for Antibacterial activity in the presence of rifampin concn (µg/ml) of 0.1: rifampin 0.1 µg/ml; for Antibacterial activity in the presence of rifampin concn (µg/ml) of 1.0: rifampin 1.0 µg/ml. On the procedure:
as §3, with “mm). […] Louis, MO, U.S.A).” for “mm).”

As for `CC(=O)O[C@H]1C[C@@]2(C)[C@@H](C[C@@H](O)[C@H]3[C@@]4(C)CC[C@@H](O)[C@@H](C)[C@@H]4CC[C@@]32C)/C1=C(\CCC=C(C)C)C(=O)O` [Fusidic acid, fusidic acid], the Sensitization factor is given as > 8 with E. cloacae ATCC23355, > 4 with K. pneumoniae ATCC13883, > 43 in the test on E. coli ATCC25922 and > 43 in the test with E. coli IH3080 [1].

For `CC(=O)NC[C@H]1CN(c2ccc(N3CCOCC3)c(F)c2)C(=O)O1` [Linezolid, linezolid], the Sensitization factor with E. cloacae ATCC23355 is > 8; with K. pneumoniae ATCC13883, > 4; in the test with E. coli ATCC25922, > 11; in the test on E. coli IH3080 [1] it was > 8.

In the case of `CC[C@@H]1NC(=O)[C@H](CC(C)C)NC(=O)[C@@H](Cc2ccccc2)NC(=O)[C@H](CCN)NC(=O)[C@@H](NC(=O)[C@H](CCN)NC(=O)[C@@H](N)[C@@H](C)O)CCNC(=O)[C@H]([C@@H](C)O)NC(=O)[C@H](CC)NC1=O` [NAB 701] (H-T[Dab][Dab][Dab][dF]L[Abu][Abu]T; lactam 3-C), in the test on E. coli IH3080 [2], the “Antibacterial activity at 4 µg” value turned out to be 0 square millimeters and the “Antibacterial activity at 10 µg” value is 0 square millimeters. Also, in the test on E. coli IH3080 [3], the “Antibacterial activity in the presence of rifampin concn (µg/ml) of 0” value amounted to 0 square millimeters, the “Antibacterial activity in the presence of rifampin concn (µg/ml) of 0.1” value (“Antibacterial activity in the presence … of 0.1” for short) is given as 0 square millimeters and the “Antibacterial activity in the presence of rifampin concn (µg/ml) of 1.0” value (“Antibacterial activity in the presence … of 1.0” below) came out at 0 square millimeters.

In the case of `CC[C@H](NC(=O)[C@@H](N)[C@@H](C)O)C(=O)N[C@H]1CCNC(=O)[C@H]([C@@H](C)O)NC(=O)[C@H](CCN)NC(=O)[C@H](CCN)NC(=O)[C@H](CC(C)C)NC(=O)[C@@H](Cc2ccccc2)NC(=O)[C@H](CCN)NC1=O` [NAB 704] (H-T[Abu][Dab][Dab][dF]L[Dab][Dab]T; lactam 3-C), in the test on E. coli IH3080 [2], the “Antibacterial activity at 4 µg” value came to 0 square millimeters and the “Antibacterial activity at 10 µg” value was found to be 0 square millimeters. Besides, in the test on E. coli IH3080 [3], the “Antibacterial activity in the presence of rifampin concn (µg/ml) of 0” value is reported as 0 square millimeters, the “Antibacterial activity in the presence … of 0.1” value was determined as 0 square millimeters and the “Antibacterial activity in the presence … of 1.0” value was 24 square millimeters.

Regarding `CC[C@H](NC(=O)[C@@H](NC(=O)[C@@H](N)CC)[C@@H](C)O)C(=O)N[C@H]1CCNC(=O)[C@H]([C@@H](C)O)NC(=O)[C@H](CCN)NC(=O)[C@H](CCN)NC(=O)[C@H](CC(C)C)NC(=O)[C@@H](Cc2ccccc2)NC(=O)[C@H](CCN)NC1=O` [NAB 705] (H-[Abu]T[Abu][Dab][Dab][dF]L[Dab][Dab]T; lactam 4-C), in the test on E. coli IH3080 [2], the “Antibacterial activity at 4 µg” value was 0 square millimeters and the “Antibacterial activity at 10 µg” value worked out at 0 square millimeters. In the test on E. coli IH3080 [3], the “Antibacterial activity in the presence of rifampin concn (µg/ml) of 0” value is 0 square millimeters, the “Antibacterial activity in the presence … of 0.1” value is 0 square millimeters and the “Antibacterial activity in the presence … of 1.0” value is given as 5 square millimeters.

For `COc1cc(Cc2cnc(N)nc2N)cc(OC)c1OC` [Trimetoprim], the Sensitization factor with E. cloacae ATCC23355 is reported as 3; in the test with K. pneumoniae ATCC13883, 2; in the test with E. coli IH3080 [1] it was 3.

Regarding `CO/N=C(\C(=O)N[C@@H]1C(=O)N2C(C(=O)O)=C(COC(C)=O)CS[C@H]12)c1csc(N)n1` [cefotaxime], the Sensitization factor in the test on E. coli ATCC25922 is on record as < 2.

Turning to `CC(C)(O/N=C(\C(=O)N[C@@H]1C(=O)N2C(C(=O)[O-])=C(C[n+]3ccccc3)CS[C@H]12)c1csc(N)n1)C(=O)O` [ceftazidime], in the test on E. coli ATCC25922, the Sensitization factor is listed as < 2.

`C[C@H]1COc2c(N3CCN(C)CC3)c(F)cc3c(=O)c(C(=O)O)cn1c23` [levofloxacin]: the Sensitization factor in the test on E. coli ATCC25922 is given as < 2.

As to `CCN1CCN(C(=O)N[C@@H](C(=O)N[C@@H]2C(=O)N3[C@@H]2SC(C)(C)[C@@H]3C(=O)O)c2ccccc2)C(=O)C1=O` [piperacillin], the Sensitization factor with E. coli ATCC25922 is < 2.

With `NC[C@H]1O[C@H](O[C@H]2[C@H](O)[C@@H](O[C@H]3O[C@H](CO)[C@@H](O)[C@H](N)[C@H]3O)[C@H](N)C[C@@H]2N)[C@H](N)C[C@@H]1O` [tobramycin], the Sensitization factor in the test on E. coli ATCC25922 is < 2.
